Assay results as given in patent US11801304B2, “Formulated and/or co-formulated liposome compositions containing TFGB antagonist prodrugs useful in the treatment of cancer and methods thereof” (Nammi Therapeutics, Inc., priority 2020, dated 2023).

Test: Solubility in ethanol when preparing stock solution
Assay type: physicochemical
Conditions: stock solution 20 mg/ml prepared in acetonitrile instead
Method: In another experiment, a liposome comprising the TB4 prodrug (denoted LNP-TB4) was synthesized in the following manner. Briefly, In the first step, a lipid stock solution of POPC (1-palmitoyl-2-oleoyl-glycero-3-phosphocholine), CHOL, and DSPE-PEG, was prepared in ethanol (20 mg/ml) separately. […] The of lipid mixture of POPC, CHOL, TB4+Stearic Acid and DSPE-PEG was mixed together at a molar ratio of 51:29:16.5:3.5, and subsequently diluted with ethanol to get a total lipid concentration of 10 mg/ml. This lipid mixture was heated at 55-60 degree Centigrade using the heating block attachment in the microfluidizer. Similarly, the aqueous phase containing 1 mM PBS buffer was also preheated at 55-60 degree centigrade before passing through the microfluidics cartridge at the flow rate of 5:1 (aqueous:organic phase, lipid mixture). The solvent was removed using dialysis membrane of cut off 12 KDa size (Sigma Aldrich) against DI water for at least 24 hrs. The Dialysis water was changed at least 5 times during the period of 24 hrs. to maximize the removal of the solvent. After the removal of the solvent, the LNP-TB4 was concentrated according to the need using Amicon centrifugal filtration device (cut off size 10 KDa, at 3000 g).
In another experiment, a liposome comprising the TB4 prodrug (denoted LNP-TB4) was co-formulated with ID3 and synthesized in the following manner. […]

For `CCCCCCCCCCCCCCCCCC(=O)OCOC(=O)N(C(=O)c1ccc(-c2cc(-c3c[nH]nc3-c3ccccn3)ccn2)cc1)C1CCOCC1` [TB4 prodrug], the “solubility in ethanol (in words)” value was “not soluble in ethanol”.
